# In PMC7033278, “A Nonpeptide Oxytocin Receptor Agonist for a Durable Relief of Inflammatory Pain” (Scientific Reports, 2020):
# “Also recorded” adds a separate entry of the source. Like-named read-outs stand apart in the source and are kept apart here.
# Experiments:
# [1] = system: CFA-induced mechanical hyperalgesia; test: mechanical sensitivity, calibrated forceps, CFA model; type: in vivo; settings: rat
# Method: LIT-001 was prepared as described in Frantz et al.[20]. […] LIT-001 or vehicle were injected intraperitoneally (i.p.), in a volume of 10 ml/kg[20], 24 h after the induction of the CFA-induced painful inflammatory sensitization. To confirm the implication of the OTR we injected (i.p.) also L-368,899 (Sigma, St. Louis, MO) (1 mg/kg), an OTR antagonist, in combination with LIT-001 in another group of rats[11].
# (§1) Male Wistar rats (300 g; JANVIER LABS, Le Genest St. Isle, France) were used for this study. They were housed by groups of 3 or 4 under standard conditions (room temperature, 22 °C; 12/12 h light/dark cycle) with ad libitum access to food and water and behavioral enrichment. All animals were manipulated and habituated to the tests and to the room for at least 2 weeks. All behavioral tests were done during the light period (i.e., between 7:00 and 19:00). All the procedures were performed in accordance with European committee council Direction, authorization from French Department of Agriculture and from the regional ethic committee.
# In all experimentations, to test the animal mechanical sensitivity, we used a calibrated forceps (Bioseb, Chaville, France) previously developed in our laboratory (Figs. 2, 3 and S2, S3)[32]. Briefly, the habituated rat is loosely restrained with a towel masking the eyes in order to limit stress by environmental stimulations. The tips of the forceps are placed at each side of the paw and a graduate force is applied. The pressure producing a withdrawal of the paw, or in some rare cases a vocalization of the animal, corresponded to the nociceptive threshold value. This manipulation was performed three times for each hindpaw and the values were […].
# In order to induce a peripheral inflammation, 100 μl of complete Freund adjuvant (CFA; Sigma, St. Louis, MO), was injected in the right hindpaw of the rat. All CFA injections were performed under light isoflurane anesthesia (3%).
# hERG = hERG (Homo sapiens, UniProt Q12809); test: hERG inhibition, patch clamp method; type: cell-based
# [2] = thermodynamic solubility in PBS pH 7.4; type: physicochemical; settings: PBS buffer, read-out: thermodynamic water solubility (S)
# Method: Solubility of LIT-001 was determined from solution of about 1 mg of compound in 500 μl of PBS at pH 7.4. (Figs. 1, S1) The solution was stirred at room temperature for 24 h and centrifuged at 15.000 × g for 5 min. The supernatant was diluted with a mixture of acetonitrile and water and analyzed by HPLC with a diode detector (Gilson; Kinetex 2.6 μm C18 100 A 50 × 4.6 mm column). […] The lipophilicity (LogD7.4) of LIT-001 was measured using […] of a stock solution diluted with different concentrations of octanol and PBS to cover a LogP range from −2 to + 4.5 in a final volume of 1 ml. After stirring for 1 h at room temperature (≈ 20 °C), the samples were centrifuged and the different phases were analyzed by HPLC (Gilson; diode detector, Kinetex 2.6 μ C18 100 A 50 × 4.6 mm column).
# V1aR (hV1AR) = system: V1aR (hV1AR); parameters: method as in PMID 30199637; settings: cited from earlier work
# [3] = system: CFA-induced inflammatory pain model; test: CFA-induced edema size (hindpaw diameter); type: in vivo; settings: rat, i.p. LIT-001 10 mg/kg at D1 after CFA
# Method: LIT-001 was prepared as described in Frantz et al.[20]. For in vivo biological assays, it was dissolved in carboxymethyl cellulose (CMC, 1%) - NaCl (0.9%) and administered at the dose of 10 mg/kg. LIT-001 or vehicle were injected intraperitoneally (i.p.), in a volume of 10 ml/kg[20], 24 h after the induction of the CFA-induced painful inflammatory sensitization. To confirm the implication of the OTR we injected (i.p.) also L-368,899 (Sigma, St. Louis, MO) (1 mg/kg), an OTR antagonist, in combination with LIT-001 in another group of rats[11].
# as §1
# In order to induce a peripheral inflammation, 100 μl of complete Freund adjuvant (CFA; Sigma, St. Louis, MO), was injected in the right hindpaw of the rat. […]
# mOTR = system: mOTR; parameters: method as in PMID 30199637; settings: mouse receptor, cited from earlier work
# human recombinant COX(1) = biological target: T1, human recombinant COX(1) (Homo sapiens, UniProt P23219); test: enzyme inhibition; type: biochemical; settings: range given for five enzymes together, below significance
# T1 construct: Eurofins (contract assay)
# Method: (§2) In vitro profiling of LIT-001 was performed by Eurofins as described in the Eurofins SafetyScreen-Functional panel, 2018[31]. The hepatotoxicity of LIT-001 was studied with cryo-preserved mouse hepatocytes. After unfreezing (optiTHAW and optiINCUBATE media, Xenotech) and cell viability control, cells (2 × 10^6 cells/ml) were dispatched in 96 well microtiterplates. LIT-001 was added to reach a concentration 1 μM in the presence of 1 × 10^6 cells/mL in a volume of 100 μl/well. The incubation was stopped at 4, 20, 40, 80 and 120 min in adding 100 μl of acetonitrile at 0 °C. A positive control was treated in the same conditions. All samples were analyzed by UHPLC coupled to a mass spectrometer (Shimadzu LC-MS 8030).
# acetylcholinesterase = biological target: T2, acetylcholinesterase (Homo sapiens, UniProt P22303); test: enzyme inhibition; type: biochemical; settings: range given for five enzymes together, below significance
# T2 construct: Eurofins (contract assay)
# Method: as §2
# [4] = biological target: T3, MAO-A from human placenta (Homo sapiens, UniProt P21397); test: enzyme inhibition; type: biochemical; settings: range given for five enzymes together, below significance
# T3 construct: MAO-A from human placenta; tissue Eurofins (contract assay); host or cells: human placenta
# Method: as §2
# COX(2) = biological target: T4, COX(2) (Homo sapiens, UniProt P35354); test: enzyme inhibition; type: biochemical
# T4 construct: Eurofins (contract assay)
# Method: as §2
# PDE3A = biological target: T5, PDE3A (Homo sapiens, UniProt Q14432); test: enzyme inhibition; type: biochemical; settings: range given for five enzymes together, below significance
# T5 construct: Eurofins (contract assay)
# Method: as §2
# PDE4D2 = biological target: T6, PDE4D2 (Homo sapiens, UniProt Q08499); test: enzyme inhibition; type: biochemical
# T6 construct: Eurofins (contract assay)
# Method: as §2
# Lck kinase = biological target: T7, Lck kinase (Homo sapiens, UniProt P06239); test: enzyme inhibition; type: biochemical; settings: range given for five enzymes together, below significance
# T7 construct: Eurofins (contract assay)
# Method: as §2
# [5] = biological target: T8, ionotropic TRPV1 receptor (Homo sapiens, UniProt Q8NER1); test: Eurofins functional profiling, TRPV1 agonist/antagonist; type: cell-based; settings: 5 μM
# T8 construct: Eurofins (contract assay)
# Method: as §2
# [6] = i.p., D1 after CFA, measured 1 hour after injection
# T8 sequence (Q8NER1 whole entry): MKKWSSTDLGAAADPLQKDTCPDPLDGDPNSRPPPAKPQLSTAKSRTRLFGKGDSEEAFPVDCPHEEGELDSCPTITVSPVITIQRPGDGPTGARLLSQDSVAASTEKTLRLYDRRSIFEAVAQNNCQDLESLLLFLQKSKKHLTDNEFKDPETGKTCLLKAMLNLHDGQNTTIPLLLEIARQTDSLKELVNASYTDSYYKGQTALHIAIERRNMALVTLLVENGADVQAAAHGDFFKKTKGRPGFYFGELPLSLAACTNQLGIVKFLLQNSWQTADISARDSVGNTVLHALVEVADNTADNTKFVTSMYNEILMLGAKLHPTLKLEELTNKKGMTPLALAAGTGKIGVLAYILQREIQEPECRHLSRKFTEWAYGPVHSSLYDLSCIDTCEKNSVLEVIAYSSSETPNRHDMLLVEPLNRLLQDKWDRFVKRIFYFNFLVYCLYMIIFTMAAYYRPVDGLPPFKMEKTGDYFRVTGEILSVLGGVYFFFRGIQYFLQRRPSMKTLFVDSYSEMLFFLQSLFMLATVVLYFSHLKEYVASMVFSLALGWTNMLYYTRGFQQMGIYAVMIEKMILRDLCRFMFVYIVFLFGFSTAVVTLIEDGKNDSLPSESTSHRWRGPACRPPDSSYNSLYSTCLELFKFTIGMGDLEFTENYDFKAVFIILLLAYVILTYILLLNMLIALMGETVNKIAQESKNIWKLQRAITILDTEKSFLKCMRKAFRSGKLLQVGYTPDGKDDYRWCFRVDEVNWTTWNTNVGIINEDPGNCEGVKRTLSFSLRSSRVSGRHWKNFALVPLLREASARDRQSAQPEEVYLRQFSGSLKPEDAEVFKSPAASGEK
# Chain of hERG (Q12809 whole entry): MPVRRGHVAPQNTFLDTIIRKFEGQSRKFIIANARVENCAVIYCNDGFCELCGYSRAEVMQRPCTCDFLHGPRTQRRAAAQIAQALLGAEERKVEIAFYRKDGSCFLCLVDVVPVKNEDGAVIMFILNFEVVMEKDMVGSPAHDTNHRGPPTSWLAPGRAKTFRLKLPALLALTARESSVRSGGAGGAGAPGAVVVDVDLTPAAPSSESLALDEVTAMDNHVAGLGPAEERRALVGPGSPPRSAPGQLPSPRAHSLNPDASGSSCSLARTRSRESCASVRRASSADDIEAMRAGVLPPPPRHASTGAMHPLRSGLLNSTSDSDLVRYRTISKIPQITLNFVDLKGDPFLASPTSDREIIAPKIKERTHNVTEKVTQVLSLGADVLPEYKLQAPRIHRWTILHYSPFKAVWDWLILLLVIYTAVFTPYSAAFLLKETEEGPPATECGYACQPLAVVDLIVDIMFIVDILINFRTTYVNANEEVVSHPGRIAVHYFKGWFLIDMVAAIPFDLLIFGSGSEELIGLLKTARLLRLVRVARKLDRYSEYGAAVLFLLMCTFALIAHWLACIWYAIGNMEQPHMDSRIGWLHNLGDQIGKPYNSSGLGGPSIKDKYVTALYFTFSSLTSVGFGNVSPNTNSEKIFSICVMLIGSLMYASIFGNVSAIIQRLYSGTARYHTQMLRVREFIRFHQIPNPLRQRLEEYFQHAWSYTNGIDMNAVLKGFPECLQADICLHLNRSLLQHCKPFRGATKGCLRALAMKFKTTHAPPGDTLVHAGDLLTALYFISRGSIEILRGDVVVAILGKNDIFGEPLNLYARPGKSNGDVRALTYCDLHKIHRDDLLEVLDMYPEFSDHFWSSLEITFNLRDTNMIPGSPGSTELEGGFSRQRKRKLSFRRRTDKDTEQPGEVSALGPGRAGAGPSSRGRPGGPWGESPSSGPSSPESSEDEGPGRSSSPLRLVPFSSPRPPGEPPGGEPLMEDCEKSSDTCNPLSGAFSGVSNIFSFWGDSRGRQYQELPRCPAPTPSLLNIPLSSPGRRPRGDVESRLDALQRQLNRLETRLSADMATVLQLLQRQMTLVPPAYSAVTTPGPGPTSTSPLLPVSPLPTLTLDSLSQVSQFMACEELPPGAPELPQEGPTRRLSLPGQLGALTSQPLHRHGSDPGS
# T4 sequence (P35354 18-604): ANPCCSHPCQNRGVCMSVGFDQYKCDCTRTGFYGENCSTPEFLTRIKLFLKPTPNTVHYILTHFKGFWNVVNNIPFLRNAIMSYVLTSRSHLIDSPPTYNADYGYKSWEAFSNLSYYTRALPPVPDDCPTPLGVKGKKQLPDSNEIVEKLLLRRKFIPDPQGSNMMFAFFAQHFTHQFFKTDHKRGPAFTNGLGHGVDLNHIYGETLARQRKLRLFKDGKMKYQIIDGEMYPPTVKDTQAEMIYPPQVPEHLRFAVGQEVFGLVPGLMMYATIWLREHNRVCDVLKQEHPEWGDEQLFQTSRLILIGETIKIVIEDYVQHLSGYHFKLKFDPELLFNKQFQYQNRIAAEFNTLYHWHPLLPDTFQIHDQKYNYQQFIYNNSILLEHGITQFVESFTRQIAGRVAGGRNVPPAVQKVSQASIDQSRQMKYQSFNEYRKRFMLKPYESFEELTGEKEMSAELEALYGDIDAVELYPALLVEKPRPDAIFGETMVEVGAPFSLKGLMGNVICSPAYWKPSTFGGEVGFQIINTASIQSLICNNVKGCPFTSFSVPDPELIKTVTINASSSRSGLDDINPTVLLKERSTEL
# T3 sequence (P21397 whole entry): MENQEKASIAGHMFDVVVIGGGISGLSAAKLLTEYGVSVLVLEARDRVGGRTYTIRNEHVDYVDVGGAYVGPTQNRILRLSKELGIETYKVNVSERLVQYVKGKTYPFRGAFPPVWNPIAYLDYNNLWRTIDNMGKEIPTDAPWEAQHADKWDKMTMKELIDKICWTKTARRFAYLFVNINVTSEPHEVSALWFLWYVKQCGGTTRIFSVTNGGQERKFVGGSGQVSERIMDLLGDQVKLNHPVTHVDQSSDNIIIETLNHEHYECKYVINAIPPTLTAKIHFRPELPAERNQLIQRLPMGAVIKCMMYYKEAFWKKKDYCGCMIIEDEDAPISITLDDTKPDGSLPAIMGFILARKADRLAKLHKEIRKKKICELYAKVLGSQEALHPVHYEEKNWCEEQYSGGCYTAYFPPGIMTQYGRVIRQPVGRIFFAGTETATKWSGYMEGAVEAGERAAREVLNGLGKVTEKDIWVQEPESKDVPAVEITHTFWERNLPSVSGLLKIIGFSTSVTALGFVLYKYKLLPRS
# T6 sequence (Q08499 303-809): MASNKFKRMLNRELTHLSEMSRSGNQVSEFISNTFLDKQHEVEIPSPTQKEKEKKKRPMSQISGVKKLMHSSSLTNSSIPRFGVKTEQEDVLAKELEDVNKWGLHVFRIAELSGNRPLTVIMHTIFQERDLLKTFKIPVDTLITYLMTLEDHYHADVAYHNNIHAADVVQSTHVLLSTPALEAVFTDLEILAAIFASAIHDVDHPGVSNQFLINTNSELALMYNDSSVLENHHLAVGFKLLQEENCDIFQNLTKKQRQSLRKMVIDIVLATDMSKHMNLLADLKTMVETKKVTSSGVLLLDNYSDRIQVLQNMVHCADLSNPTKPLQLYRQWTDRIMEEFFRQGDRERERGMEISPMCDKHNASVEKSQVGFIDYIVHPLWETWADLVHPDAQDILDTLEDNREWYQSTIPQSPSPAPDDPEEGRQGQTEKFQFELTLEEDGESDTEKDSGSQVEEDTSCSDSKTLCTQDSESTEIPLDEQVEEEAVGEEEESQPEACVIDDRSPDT
# T7 sequence (P06239 whole entry): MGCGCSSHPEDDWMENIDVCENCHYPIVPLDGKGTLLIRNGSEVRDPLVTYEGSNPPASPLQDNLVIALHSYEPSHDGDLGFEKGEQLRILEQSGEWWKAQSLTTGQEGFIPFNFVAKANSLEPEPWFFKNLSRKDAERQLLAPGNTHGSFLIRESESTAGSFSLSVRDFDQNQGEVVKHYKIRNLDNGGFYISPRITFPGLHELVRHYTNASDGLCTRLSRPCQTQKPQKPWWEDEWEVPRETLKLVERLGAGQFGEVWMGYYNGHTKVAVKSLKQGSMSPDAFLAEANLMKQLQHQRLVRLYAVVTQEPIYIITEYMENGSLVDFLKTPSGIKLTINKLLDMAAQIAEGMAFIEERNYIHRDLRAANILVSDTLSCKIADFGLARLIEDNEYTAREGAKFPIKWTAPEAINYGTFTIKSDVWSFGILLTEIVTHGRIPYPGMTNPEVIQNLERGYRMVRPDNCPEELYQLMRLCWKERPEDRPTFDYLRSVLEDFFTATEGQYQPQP
# T1 sequence (P23219 24-599): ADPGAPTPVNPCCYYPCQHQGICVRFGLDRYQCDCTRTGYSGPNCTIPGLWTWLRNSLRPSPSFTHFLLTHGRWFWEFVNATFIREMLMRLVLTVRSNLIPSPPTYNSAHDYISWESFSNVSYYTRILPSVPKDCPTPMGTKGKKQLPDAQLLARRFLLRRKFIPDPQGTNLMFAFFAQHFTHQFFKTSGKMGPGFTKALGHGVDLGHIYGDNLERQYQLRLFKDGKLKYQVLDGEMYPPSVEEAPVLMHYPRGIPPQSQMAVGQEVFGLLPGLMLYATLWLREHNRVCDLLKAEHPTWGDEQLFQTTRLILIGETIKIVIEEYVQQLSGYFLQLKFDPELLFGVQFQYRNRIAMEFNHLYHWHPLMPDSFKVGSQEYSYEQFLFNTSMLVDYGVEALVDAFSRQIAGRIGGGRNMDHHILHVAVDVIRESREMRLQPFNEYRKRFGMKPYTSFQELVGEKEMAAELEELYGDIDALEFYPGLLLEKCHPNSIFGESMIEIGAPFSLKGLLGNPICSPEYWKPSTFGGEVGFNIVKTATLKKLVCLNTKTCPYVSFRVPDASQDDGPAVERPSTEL
compound,measurement,setting,value
Cc1cc(C(=O)N2Cc3cnn(C)c3Nc3ccccc32)ccc1CNC(=O)N1CCC[C@H]1C(=S)N(C)C [LIT-001],"mechanical threshold, NaCl-injected hindpaw (control animals)",[1]; 10 mg/kg i.p.,526 ± 20 g
same,"mechanical threshold, hindpaw contralateral to CFA (cCFA)",[1]; 10 mg/kg i.p.,531 ± 25 g
same,antinociceptive action on contralateral hindpaw,"[1]; 0.1-15 mg/kg i.p., mechanical and thermal heat, 1 hour after injection",none of the doses tested seem to exert an antinociceptive action
same,"relative-to-baseline AUC, mechanical threshold, CFA-injected hindpaw",[1]; i.p. LIT-001 10 mg/kg at D1 after CFA,152 ± 11%
same,"mechanical threshold, CFA-injected hindpaw","[1]; i.p. LIT-001 10 mg/kg at D1 after CFA, 3 h post i.p.",246 ± 22 g
same,"dose at which analgesic effect reaches a plateau, mechanical hypersensitivity",[1]; [6],10 mg/kg
same,"dose of first analgesic action, mechanical hypersensitivity",[1]; [6],5 mg/kg
same,inhibition at 1 µM,hERG; 1 μM,9.5%
same,inhibition at 10 µM,hERG; 10 μM,10.6%
same,solubility thermodynamic at 24 h,"[2]; pH 7.4, aqueous buffer, thermodynamic from solid",530 ± 30 µM
same,solubility thermodynamic at 24 h,[2]; pH 7.4,340 µg/mL
same,EC50 (hV1AR),V1aR (hV1AR); agonist mode,non significant
same,IC50,"V1aR (hV1AR); antagonist mode, read-out: IC50, antagonism of vasopressin induced calcium release on V1aR",5900 nM
same,CFA-induced edema size,[3],9.49 ± 0.23 mm
same,EC50,mOTR; agonist,18 nM
same,Emax (mOTR),mOTR; efficacy,95%
same,inhibition at 5 µM,human recombinant COX(1),6.4 to 9.5%
same,inhibition at 5 µM,acetylcholinesterase,6.4 to 9.5%
same,inhibition at 5 µM,[4],6.4 to 9.5%
same,inhibition at 5 µM,COX(2),24.6%
same,inhibition at 5 µM,PDE3A,6.4 to 9.5%
same,inhibition at 5 µM,PDE4D2,23.1%
same,inhibition at 5 µM,Lck kinase,6.4 to 9.5%
same,agonist or antagonist activity at TRPV1 receptor,[5],"No significant agonist or antagonist; also recorded: neither LIT-001 nor the OT antagonist L-368,699 displayed any significant agonist or antagonist activity"
